Results: ChEMBL document CHEMBL3272225, “Potential carcinostatics. Synthesis and biological properties of d- and 1-beta,beta-difluoroaspartic acid and beta,beta-difluoroasparagine” (J Med Chem, 1977)
Active and inactive are the calls of the source. No cut-off for these calls is given here.

How the values were obtained:
[1] = Growth inhibition of mouse 3T3-F cells at 10 ug/ml assessed as cell growth after 24 hrs by Coulter counting method; assay type: functional
[2] = Growth inhibition of mouse 3T3-F cells assessed as cell growth at 100 ug/ml after 24 hrs by Coulter counting method; assay type: functional
[3] = species on record: Mus musculus; test: Growth inhibition of mouse 3T3-F cells assessed as cell growth after 24 hrs by Coulter counting method; assay type: functional
[4] = Competitive inhibition of aspartate aminotransferase in rat liver homogenate by Lineweaver-Burk plot method; assay type: tissue-based
[5] = system: L5178Y; test: Antitumor activity against mouse L5178Y cells allografted in CDF-1 mouse assessed as cytostatic activity administered on day 1 to day 9 post challenge; assay type: functional

In the case of `N[C@@H](C(=O)O)C(F)(F)C(=O)O`, the Cell growth at 10 µg/mL [1] is reported as 75% and the Cell growth at 100 µg/mL [2] is reported as 12%.
For `N[C@H](C(=O)O)C(F)(F)C(=O)O`, the Activity [3] was “inactive”.
For `NC(C(=O)O)C(F)(F)C(=O)O` (racemic), the Ki [4] was 1000 µM and the Activity [5] was “inactive”.
In the case of `NC(=O)C(F)(F)C(N)C(=O)O` (racemic), the Activity [5] is reported as “inactive”.
